The values below come from US9242993B2, “Morpholino substituted bicyclic pyrimidine urea or carbamate derivatives as mTOR inhibitors” (CELLZOME LIMITED, priority 2011, dated 2016).

The test system of test [1] is S6RP serine-240/244 phosphorylation. Kind of test: In vitro phospho-S6 cellular assay. The settings on record: Homo sapiens; HEK293T/17 cells, 2 hours; read-out: pS6 inhibition value (IC50), activity level. The class given is cell-based. In short, it runs like this: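 HEK293T/17 cells (40,000/well for pS6RP, 80,000/well for pAkt) in DMEM, 2% FCS treated 2 h at 37 °C with 8 compound concentrations (0.1% DMSO). Lysates assayed by MesoScale sandwich electrochemiluminescence for pS6RP Ser240/244 or pAkt Ser473. Curves fitted by sigmoidal variable-slope regression.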

For test [2], the system named is Akt serine-473 phosphorylation. Kind of test: In vitro phospho-Akt cellular assay. The format is cell-based. The conditions noted are these: Homo sapiens; HEK293T/17 cells, 2 hours; read-out: pAkt inhibition value (IC50), activity level. From the text:
Activation of mTOR signaling results in phosphorylation of several downstream targets. In cells, mTOR exists in two different protein complexes. The mTOR Complex-1 (mTORC1) phosphorylates and activates S6 Kinase 1 (S6K1) and S6 Kinase 2 (S6K2) (also known as p70S6K) which then phosphorylate S6 Ribosomal Protein (S6RP) (also known as RPS6)3. S6RP is phosphorylated on serine 235, serine 236, serine 240 and serine 244 by both pS6K1 and pS6K2. The mTOR Complex-2 (mTORC2) phosphorylates AKT on serine 473 which activates the AKT signaling pathway.
The assay measures a test compound's inhibition of S6RP serine-240/244 phosphorylation and inhibition of Akt serine-473 phosphorylation in human embryonic kidney derived HEK293T/17 cells (ATCC CRL-11268).
The HEK293T/17 cell line is maintained in DMEM media (Invitrogen catalogue number 41965-039) supplemented with 10% FCS at 37° C. in a 5% CO2 humidified incubator.
Cells are seeded in 96-well plates at 40,000 cells/well (pS6RP S240/244 assay) or 80,000 cells/well (pAkt S473 assay) in 90 μl growth media (DMEM, 2% FCS). Plates are incubated for 1 hour in a humidified incubator to allow the cells to adhere. Cells are treated with 8 concentrations of test compounds or DMSO alone for controls (final DMSO concentration 0.1%) and incubated at 37° C. for 2 hours. Then 20 μl of 5× concentrated lysis buffer (750 mM NaCl, 100 mM Tris pH7.4, 5 mM ADTA, 5 mM EGTA, 5% Triton X-100) is added, plates are sealed and incubated for 15 minutes at 4° C. with gentle shaking. After cell lysis, 25 μl cell lysate is transferred to a MesoScale plate coated with an antibody to pS6RP Ser240/244 (MesoScale Discovery K150DGD-3) or an antibody to pAkt Ser 473 (MesoScale Discovery K151DGD-3). Plates have been blocked before by incubation with 150 μl MesoScale Discovery Blocking Solution-A for 1 hour at room temperature followed by washing with 150 μl 1× Tris wash buffer per well. After the transfer of the cell lysate to the MSD plate, the pS6RP (or pAkt) protein is captured on the coated antibody by incubation at room temperature for 1 hour with gentle shaking. After the capture step the plate is washed three times with 150 μl of 1× Tris wash buffer per well. Then 25 μl detection antibody conjugated with a Sulfo-Tag is added and incubated for 1 hour at room temperature with gentle shaking. Subsequently the antibody solution is removed and the plate is washed 3 times with 150 μl 1× Tris wash buffer per well and 150 μl Read buffer is added. The plates are analysed on a MSD 2400 Plate Reader (MesoScale Discovery). Data analysis is performed using nonlinear regression for a sigmoidal dose-response with a variable slope.

A further test deals with mTOR (Homo sapiens, UniProt P42345). Kind of test: biochemical.
In test [3] the test system is IFNγ release in whole blood. In words: In vitro human whole blood assay (IFNγ release). The class given is cell-based. The settings on record: αCD3/αCD28 and IL-2 stimulation, 18 hours, read-out: WB inhibition value (pIC50) (converted). As for the experimental part: This assay measures IFNγ release in whole blood after αCD3/αCD28 and IL-2 treatment. The whole blood contains circulating T lymphocytes; αCD3/αCD28 stimulation mimics antigen receptor signalling, resulting in epigenetic changes to the IFNG gene locus, such that when IL-2 is added, IFNγ is produced.
Human whole blood, with Na-heparin as the anticoagulant, is obtained from Clinical Trials Laboratory Services. Blood is diluted 1.4 times with RPMI 1640 (Lonza, BE12-167F) and 175 μl/well is distributed in a low evaporation 96-well plates (Falcon, BD Labware, 353072). Blood is treated with 10 concentrations of test compounds or DMSO alone for controls (final DMSO concentration 0.2%) and incubated at 37° C. for 1 hour. Blood is then stimulated with 1 μg/ml αCD3 (R&D Systems, MAB100), 1 μg/ml αCD28 (BD Pharmingen, 555725) and IL-2 at 10 ng/ml (Peprotech, 200-02). Blood is then left to incubate at 37° C. for 18 hours. After, plates are spun at 250 g for 5 minutes to pellet blood cells and 25 μl of plasma is transferred to a MesoScale plate coated with an antibody to IFNγ (MesoScale Discovery K151AEC-2) containing 25 μl/well MesoScale Discovery Blocking Solution-2. Plates have been blocked by incubating with 25 μl/well MesoScale Discovery Blocking Solution-2 for 30 minutes at room temperature. After the transfer of sera to the MSD plate, the IFNγ protein is captured on the coated antibody by incubation at room temperature for 2 hour with gentle shaking. After the capture step the plate is washed three times with 150 μl/well of 1×PBS-Tween wash buffer and 25 μl/well detection antibody conjugated with a Sulfo-Tag is added and incubated for 2 hours at room temperature with gentle shaking. Subsequently the antibody solution is removed and the plate is washed 3 times with 150 μl/well 1×PBS-Tween wash buffer and 150 μl/well MesoScale Discovery Read buffer is added. The plates are analysed on a MSD 2400 Plate Reader (MesoScale Discovery). Data analysis is performed using nonlinear regression for a sigmoidal dose-response with a variable slope.

Test [4] has as its target DNA-dependent protein kinase (DNA-PK) (Homo sapiens, UniProt P78527). Kind of test: biochemical.

Structures are written as SMILES.

Chain of DNA-dependent protein kinase (DNA-PK) (P78527 whole entry): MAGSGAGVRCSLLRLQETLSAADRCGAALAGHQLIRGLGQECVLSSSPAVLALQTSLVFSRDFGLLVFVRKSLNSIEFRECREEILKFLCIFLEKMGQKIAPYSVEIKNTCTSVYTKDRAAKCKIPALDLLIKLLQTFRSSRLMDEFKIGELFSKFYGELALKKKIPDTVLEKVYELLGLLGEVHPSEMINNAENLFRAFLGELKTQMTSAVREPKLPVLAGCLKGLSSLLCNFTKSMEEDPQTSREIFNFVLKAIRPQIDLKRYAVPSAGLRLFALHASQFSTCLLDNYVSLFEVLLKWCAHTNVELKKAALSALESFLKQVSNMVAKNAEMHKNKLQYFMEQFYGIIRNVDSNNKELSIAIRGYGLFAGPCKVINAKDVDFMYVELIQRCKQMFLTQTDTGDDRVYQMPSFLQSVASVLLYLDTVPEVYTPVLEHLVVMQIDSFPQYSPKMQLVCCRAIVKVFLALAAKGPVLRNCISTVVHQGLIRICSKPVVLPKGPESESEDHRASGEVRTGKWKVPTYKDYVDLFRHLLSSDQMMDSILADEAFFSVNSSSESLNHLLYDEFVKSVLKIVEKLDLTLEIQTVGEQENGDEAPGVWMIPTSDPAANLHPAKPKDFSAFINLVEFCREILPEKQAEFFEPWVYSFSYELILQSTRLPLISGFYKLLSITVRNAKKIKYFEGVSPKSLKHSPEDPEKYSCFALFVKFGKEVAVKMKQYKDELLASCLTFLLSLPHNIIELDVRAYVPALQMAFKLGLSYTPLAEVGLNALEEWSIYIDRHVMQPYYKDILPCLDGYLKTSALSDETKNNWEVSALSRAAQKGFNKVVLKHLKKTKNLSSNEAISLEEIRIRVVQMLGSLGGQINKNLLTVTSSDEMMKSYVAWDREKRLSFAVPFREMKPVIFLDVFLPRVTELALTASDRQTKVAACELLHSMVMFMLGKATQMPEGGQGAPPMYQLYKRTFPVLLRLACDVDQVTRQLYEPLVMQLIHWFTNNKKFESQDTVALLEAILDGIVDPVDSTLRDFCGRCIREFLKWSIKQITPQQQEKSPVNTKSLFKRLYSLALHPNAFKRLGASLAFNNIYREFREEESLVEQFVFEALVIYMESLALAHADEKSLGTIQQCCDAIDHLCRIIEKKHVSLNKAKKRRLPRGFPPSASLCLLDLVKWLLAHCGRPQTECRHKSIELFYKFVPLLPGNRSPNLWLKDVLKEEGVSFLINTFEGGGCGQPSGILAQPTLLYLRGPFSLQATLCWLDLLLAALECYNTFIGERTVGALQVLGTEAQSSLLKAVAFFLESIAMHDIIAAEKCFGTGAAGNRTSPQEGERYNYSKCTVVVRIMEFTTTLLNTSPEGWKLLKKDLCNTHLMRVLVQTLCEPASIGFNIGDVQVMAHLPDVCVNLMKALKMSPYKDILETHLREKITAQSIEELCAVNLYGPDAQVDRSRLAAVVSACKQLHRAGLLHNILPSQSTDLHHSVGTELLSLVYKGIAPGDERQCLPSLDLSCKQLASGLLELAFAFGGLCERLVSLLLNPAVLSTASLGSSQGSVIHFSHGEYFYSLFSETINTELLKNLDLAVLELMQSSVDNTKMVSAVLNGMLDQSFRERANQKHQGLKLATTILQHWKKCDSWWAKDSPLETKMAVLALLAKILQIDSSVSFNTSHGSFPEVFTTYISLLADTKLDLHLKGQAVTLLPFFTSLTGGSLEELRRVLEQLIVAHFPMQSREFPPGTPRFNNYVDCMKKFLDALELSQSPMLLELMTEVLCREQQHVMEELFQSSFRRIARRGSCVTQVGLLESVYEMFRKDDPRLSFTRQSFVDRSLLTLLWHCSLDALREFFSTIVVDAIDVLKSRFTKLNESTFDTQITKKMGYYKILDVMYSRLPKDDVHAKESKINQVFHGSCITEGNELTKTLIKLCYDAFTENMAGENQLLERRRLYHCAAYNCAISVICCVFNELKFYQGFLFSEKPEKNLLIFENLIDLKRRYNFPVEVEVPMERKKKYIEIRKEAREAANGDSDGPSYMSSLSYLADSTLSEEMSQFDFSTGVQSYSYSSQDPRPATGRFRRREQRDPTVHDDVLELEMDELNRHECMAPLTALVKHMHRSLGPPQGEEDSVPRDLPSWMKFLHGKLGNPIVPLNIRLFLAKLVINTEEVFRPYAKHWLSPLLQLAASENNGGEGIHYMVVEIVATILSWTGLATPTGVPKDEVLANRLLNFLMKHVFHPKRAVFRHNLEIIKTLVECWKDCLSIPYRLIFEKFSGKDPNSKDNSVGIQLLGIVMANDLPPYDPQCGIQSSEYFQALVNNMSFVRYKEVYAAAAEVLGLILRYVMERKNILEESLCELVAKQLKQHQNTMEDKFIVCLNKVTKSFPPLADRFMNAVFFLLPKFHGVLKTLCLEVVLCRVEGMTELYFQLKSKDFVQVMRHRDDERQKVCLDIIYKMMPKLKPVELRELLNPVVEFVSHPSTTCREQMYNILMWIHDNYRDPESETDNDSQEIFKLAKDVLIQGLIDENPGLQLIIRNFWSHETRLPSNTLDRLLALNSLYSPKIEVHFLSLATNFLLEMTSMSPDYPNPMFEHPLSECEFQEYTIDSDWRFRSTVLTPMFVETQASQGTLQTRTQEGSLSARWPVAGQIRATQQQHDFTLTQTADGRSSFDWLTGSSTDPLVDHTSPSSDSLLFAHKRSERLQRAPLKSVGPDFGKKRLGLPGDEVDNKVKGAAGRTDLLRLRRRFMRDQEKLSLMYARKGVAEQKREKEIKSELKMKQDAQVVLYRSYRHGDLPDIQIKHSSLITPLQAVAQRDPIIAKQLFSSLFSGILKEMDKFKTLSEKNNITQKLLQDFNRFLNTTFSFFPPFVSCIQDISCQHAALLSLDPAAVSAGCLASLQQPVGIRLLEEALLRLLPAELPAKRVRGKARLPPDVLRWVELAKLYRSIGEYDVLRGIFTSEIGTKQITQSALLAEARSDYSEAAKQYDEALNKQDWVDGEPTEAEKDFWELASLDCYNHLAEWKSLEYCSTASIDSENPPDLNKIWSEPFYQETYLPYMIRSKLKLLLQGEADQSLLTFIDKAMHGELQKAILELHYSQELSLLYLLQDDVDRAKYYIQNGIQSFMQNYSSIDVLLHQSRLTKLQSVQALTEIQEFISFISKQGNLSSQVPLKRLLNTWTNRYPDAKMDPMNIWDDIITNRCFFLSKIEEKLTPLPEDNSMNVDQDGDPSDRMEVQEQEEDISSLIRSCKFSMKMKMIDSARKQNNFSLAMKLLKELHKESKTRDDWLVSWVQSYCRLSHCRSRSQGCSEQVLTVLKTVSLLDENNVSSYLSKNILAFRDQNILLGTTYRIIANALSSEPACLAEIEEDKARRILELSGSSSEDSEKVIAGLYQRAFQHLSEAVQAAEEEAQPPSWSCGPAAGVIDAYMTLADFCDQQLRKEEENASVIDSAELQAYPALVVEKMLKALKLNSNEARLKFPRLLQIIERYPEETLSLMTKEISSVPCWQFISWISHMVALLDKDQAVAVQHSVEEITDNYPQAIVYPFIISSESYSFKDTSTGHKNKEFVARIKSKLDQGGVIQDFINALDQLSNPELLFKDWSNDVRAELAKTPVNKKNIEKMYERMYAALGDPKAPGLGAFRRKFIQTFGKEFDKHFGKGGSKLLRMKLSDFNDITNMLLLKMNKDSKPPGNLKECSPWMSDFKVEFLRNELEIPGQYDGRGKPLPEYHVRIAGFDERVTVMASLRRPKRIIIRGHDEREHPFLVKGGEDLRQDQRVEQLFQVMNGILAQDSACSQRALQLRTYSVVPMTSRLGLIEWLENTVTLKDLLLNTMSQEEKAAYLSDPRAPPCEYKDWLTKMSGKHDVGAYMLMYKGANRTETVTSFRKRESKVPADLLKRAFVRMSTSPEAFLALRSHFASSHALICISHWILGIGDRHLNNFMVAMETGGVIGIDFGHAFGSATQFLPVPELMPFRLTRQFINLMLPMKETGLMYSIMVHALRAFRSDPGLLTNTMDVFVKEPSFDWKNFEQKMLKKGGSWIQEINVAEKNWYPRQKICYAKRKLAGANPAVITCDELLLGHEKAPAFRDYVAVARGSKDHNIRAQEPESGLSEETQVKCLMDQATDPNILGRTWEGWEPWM

As for `C[C@H]1COCCN1c1nc(-c2ccc(NC(=O)NC3CC3)cc2)nc2c1[C@H](C)S(=O)(=O)C2` (single isomer, unassigned) [Example 10], the IC50 (in test [1]; in test [2]; against mTOR) was less than 100 nM each time.
Consider `C[C@@H]1c2c(nc(-c3ccc(NC(=O)NC4CC4)cc3)nc2N2CCOC[C@@H]2C)CS1(=O)=O` (single isomer, unassigned) [Example 9], for which the IC50 (in test [1]; in test [2]; on mTOR) was less than 100 nM throughout.
As for `CC[C@H]1COCCN1c1nc(-c2ccc(NC(=O)NC)c(F)c2)nc2c1CS(=O)(=O)C2(C)C` [Example 64, (S)-1-(4-(4-(3-ethylmorpholino)-7,7-dimethyl-6,6-dioxido-5,7-dihydrothieno[3,4-d]pyrimidin-2-yl)-2-fluorophenyl)-3-methylurea], the IC50 is less than 100 nM in test [1], 158 nM in test [3], 100 to 1000 nM against mTOR and greater than 10000 nM in test [4].
In the same order, the values of `CC1(C)c2nc(-c3ccc(NC(=O)NC4CC4)cc3)nc(N3C4CCC3COC4)c2CS1(=O)=O` [Example 59, 1-(4-(4-(3-oxa-8-azabicyclo[3.2.1]octan-8-yl)-7,7-dimethyl-6,6-dioxido-5,7-dihydrothieno[3,4-d]pyrimidin-2-yl)phenyl)-3-cyclopropylurea] are less than 100 nM, 100 nM, less than 100 nM and greater than 10000 nM.
Taken in the same sequence, the figures for `CCNC(=O)Nc1ccc(-c2nc3c(c(N4CCOC[C@@H]4CC)n2)CS(=O)(=O)C3C)cc1` (stereo partly drawn) [Example 41, 1-ethyl-3-(4-(4-((S)-3-ethylmorpholino)-7-methyl-6,6-dioxido-5,7-dihydrothieno[3,4-d]pyrimidin-2-yl)phenyl)urea] were less than 100 nM, 251 nM, less than 100 nM and greater than 10000 nM.
As to `CC1c2c(nc(-c3ccc(NC(=O)NC4CC4)cc3)nc2N2CCOC[C@@H]2C)CCS1(=O)=O` (stereo partly drawn) [Example 74, 1-cyclopropyl-3-(4-(5-methyl-4-((S)-3-methylmorpholino)-6,6-dioxido-7,8-dihydro-5H-thiopyrano[4,3-d]pyrimidin-2-yl)phenyl)urea], the IC50 in test [1] is less than 100 nM; in test [3], 501 nM; against mTOR, less than 100 nM; in test [4], greater than 10000 nM.
As to `CC[C@H]1COCCN1c1nc(-c2ccc(NC(=O)NC3CC3)cc2)nc2c1C(C)S(=O)(=O)C2` (stereo partly drawn) [Example 47, 1-cyclopropyl-3-(4-(4-((S)-3-ethylmorpholino)-5-methyl-6,6-dioxido-5,7-dihydrothieno[3,4-d]pyrimidin-2-yl)phenyl)urea], the IC50 in test [1] is less than 100 nM; in test [3], 79.4 nM; on mTOR, 100 to 1000 nM; in test [4], greater than 10000 nM.
For the molecule `CCNC(=O)Nc1ccc(-c2nc3c(c(N4CCOC[C@@H]4CC)n2)[C@@H](C)S(=O)(=O)C3)cc1` [Example 52, 1-ethyl-3-(4-((R)-4-((S)-3-ethylmorpholino)-5-methyl-6,6-dioxido-5,7-dihydrothieno[3,4-d]pyrimidin-2-yl)phenyl)urea], the IC50 in test [1] is less than 100 nM; in test [3] it was 31.6 nM; against mTOR, less than 100 nM; in test [4], greater than 10000 nM.
For the molecule `CCNC(=O)Nc1ccc(-c2nc(N3C4CCC3COC4)c3c(n2)C(C)(C)S(=O)(=O)C3)cc1` [Example 60, 1-(4-(4-(3-oxa-8-azabicyclo[3.2.1]octan-8-yl)-7,7-dimethyl-6,6-dioxido-5,7-dihydrothieno[3,4-d]pyrimidin-2-yl)phenyl)-3-ethylurea], the IC50 in test [1] is less than 100 nM; in test [3], 200 nM; at mTOR it was less than 100 nM; in test [4] it was greater than 10000 nM.
For `CC1Cc2nc(-c3ccc(NC(=O)NC4CC4)cc3)nc(N3CCOC[C@@H]3C)c2CS1(=O)=O` (stereo partly drawn) [Example 71, 1-cyclopropyl-3-(4-(7-methyl-4-((S)-3-methylmorpholino)-6,6-dioxido-7,8-dihydro-5H-thiopyrano[4,3-d]pyrimidin-2-yl)phenyl)urea], the IC50 in test [1] is less than 100 nM; in test [3], 794 nM; on mTOR it was less than 100 nM; in test [4] it was greater than 10000 nM.
As for `CCNC(=O)Nc1ccc(-c2nc3c(c(N4CCOC[C@@H]4C)n2)C(CC)S(=O)(=O)C3)cc1` (stereo partly drawn) [Example 67, 1-ethyl-3-(4-(5-ethyl-4-((S)-3-methylmorpholino)-6,6-dioxido-5,7-dihydrothieno[3,4-d]pyrimidin-2-yl)phenyl)urea], the IC50 in test [1] was less than 100 nM; in test [3], 316 nM; on mTOR, less than 100 nM; in test [4], greater than 10000 nM.
Consider `C[C@H]1COCCN1c1nc(-c2ccc(NC(=O)NC3CC3)cc2)nc2c1CS(=O)(=O)C2(C)F` (stereo partly drawn) [Example 43, 1-cyclopropyl-3-(4-(7-fluoro-7-methyl-4-((S)-3-methylmorpholino)-6,6-dioxido-5,7-dihydrothieno[3,4-d]pyrimidin-2-yl)phenyl)urea], for which the IC50 in test [1] was less than 100 nM; in test [3] it was 1000 nM; on mTOR it was less than 100 nM; in test [4] it was greater than 10000 nM.
As for `C[C@H]1COCCN1c1nc(-c2ccc(NC(=O)NC3CC3)cc2)nc2c1CS(=O)(=O)C(C)(C)C2` [Example 70, (S)-1-cyclopropyl-3-(4-(7,7-dimethyl-4-(3-methylmorpholino)-6,6-dioxido-7,8-dihydro-5H-thiopyrano[4,3-d]pyrimidin-2-yl)phenyl)urea], the IC50 in test [1] was less than 100 nM; in test [3], 158 nM; against mTOR, less than 100 nM; in test [4], greater than 10000 nM.
As for `C[C@H]1COCCN1c1nc(-c2ccc(NC(=O)NC3CC3)cc2)nc2c1CS(=O)(=O)C2` [Example 2, (S)-1-cyclopropyl-3-(4-(4-(3-methylmorpholino)-6,6-dioxido-5,7-dihydrothieno[3,4-d]pyrimidin-2-yl)phenyl)urea], the IC50 (in test [1]; in test [2]; on mTOR) was less than 100 nM throughout.
